Source: ChEMBL document CHEMBL4627374, “Psathyrins: Antibacterial Diterpenoids from Psathyrella candolleana” (2020)
In brackets after ≈: the same amount, converted by molar mass.

Tests used:
Format in all cases: functional
Staphylococcus aureus = test: Antibacterial activity against Staphylococcus aureus subsp. aureus ATCC 29213 incubated for 24 hrs by photometry; details: ATCC 29213, 24 h
Pseudomonas aeruginosa = test: Antibacterial activity against Pseudomonas aeruginosa ATCC 27853 incubated for 24 hrs by photometry; details: ATCC 27853, 24 h
[1] = system: Salmonella enterica subsp. enterica; test: Antibacterial activity against Salmonella enterica subsp. enterica ATCC 14028 incubated for 24 hrs by photometry; details: ATCC 14028, 24 h

MIC50 (Staphylococcus aureus)	MIC50 (Pseudomonas aeruginosa)	MIC50 [1]	Structure (SMILES)
22.7 µg/mL (≈ 71.3 µM)	> 128 µg/mL	102 µg/mL (≈ 319 µM)	C[C@H](CO)[C@H]1CC(=O)C23[C@@H]4C=C(CO)CC[C@@H]4[C@@]2(C)CC[C@]13C (some centres undefined)
14.3 µg/mL (≈ 44.9 µM)	> 128 µg/mL	77.9 µg/mL (≈ 245 µM)	CC(C)[C@H]1CC(=O)[C@]23[C@@H]4C=C(CO)C[C@@H](O)[C@@H]4[C@@]2(C)CC[C@]13C
0.81 µg/mL		1.32 µg/mL	CC1(C)S[C@@H]2[C@H](NC(=O)Cc3ccccc3)C(=O)N2C1C(=O)[O-].[Na+] (some centres undefined)

Structure (SMILES)	MIC50 (Staphylococcus aureus)	MIC50 (Pseudomonas aeruginosa)	MIC50 [1]
CC(C)(O/N=C(\C(=O)N[C@@H]1C(=O)N2C(C(=O)[O-])=C(C[n+]3ccccc3)CS[C@H]12)c1csc(N)n1)C(=O)O [CEFTAZIDIME]		0.08 µg/mL (≈ 0.146 µM)	
